Tests used:
[1] = Test for catalytic dismutation of superoxide; type: biochemical; conditions: test compound: copper glycine ratio of 4:1; read-out: Catalysis of superoxide dismutation, I50
Excerpt: (A) Test for catalytic dismutation of superoxide:
This test is relevant to degenerative joint disease and inflammation. The method followed is the method of M. YOUNES and U. WESER [Biochem.Biophys.Res.Commun. 1977, 78 (4) 1247-53] using a test compound: copper glycine ratio of 4:1.

[2] = Test for cupriuretic activity; type: in vivo; conditions: at 1 mM/kg
Excerpt: (B) Test for cupriuretic activity:
This test is relevant to Wilson's disease. The method followed is the method of K. GIBBS and J. M. WALSHE (Clinical Science and Molecular Medicine, 1977, 53, 317-20).

mice = assay: Acute toxicity studies in mice; type: in vivo; conditions: i.p.
Protocol: Acute toxicity studies in mice have shown that the minimum single dose to cause death is >2400 mg/kg i.p. for compound B and ≤400 mg/kg i.p. for DL-penicillamine.

SMILES: CC(C)(S)C(N)P(=O)(O)O (racemic) [Compound A, DL-(1-Amino-2-mercapto-2-methylpropyl)phosphonic acid]
- IC50 [1]: 1.2 µM
- Cupriuretic activity, % Increase [2]: 139%

SMILES: CC(C)(S)C(N)[PH](=O)O (racemic) [Compound B, DL-(1-Amino-2-mercapto-2-methylpropyl)phosphinic acid]
- IC50 [1]: 1.2 µM
- Cupriuretic activity, % Increase [2]: 397%
- minimum single dose to cause death (mice): > 2400 mg/kg

SMILES: CC1(C)NC(P(=O)(O)O)C(C)(C)S1 (racemic) [Compound C, DL-2,2,5,5-Tetramethyl-4-thiazolidinyl)phosphonic acid]
- Cupriuretic activity, % Increase [2]: 122%

SMILES: CC1(C)NC([PH](=O)O)C(C)(C)S1 (racemic) [Compound D, DL-(2,2,5,5-Tetramethyl-4-thiazolidinyl)phosphinic acid]
- Cupriuretic activity, % Increase [2]: 308%

SMILES: CC(C)(S)C(N)C(=O)O (racemic) [DL-penicillamine, reference compound]
- minimum single dose to cause death (mice): ≤ 400 mg/kg
